Assay results: patent publication US9951035B2, “Selective matrix metalloproteinase inhibitors” (University of Notre Dame du Lac, priority 2014, dated 2018)
Counter-ions that a name gives are not always drawn.

What was measured:
[1] = Stability in buffers of the kinetic assays; format: physicochemical; details: in words
Source text: Human recombinant active MMP-2 and MMP-7, and the catalytic domains of MMP-3 and MMP-14/MT1-MMP were purchased from EMD Chemicals, Inc. (San Diego, Calif., USA); human recombinant catalytic domains of MMP-1, MMP-8, and MMP-9 were purchased from Enzo Life Sciences, Inc. (Farmingdale, N.Y., USA); human recombinant active ADAM9 and ADAM10 were purchased from R&D Systems (Minneapolis, Minn., USA). Fluorogenic substrates MOCAc-Pro-Leu-Gly-Leu-A2pr(Dnp)-Ala-Arg-NH2 (for MMP-2, MMP-7, MMP-9 and MMP-14) and MOCAc-Arg-Pro-Lys-Pro-Val-Glu-Nva-Trp-Arg-Lys(Dnp)-NH2 (for MMP-3) were purchased from Peptides International (Louisville, Ky., USA); Mca-KPLGL-Dpa-AR-NH2 (for MMP-1, MMP-8 and ADAM10) and Mca-PLAQAV-Dpa-RSSSR-NH2 (for ADAM9) were purchased from R&D Systems (Minneapolis, Minn., USA). […] Inhibitor stock solutions (10 mM) were prepared fresh in DMSO before enzyme inhibition assays. We followed the same methodology for enzyme inhibition studies as reported by Page-McCaw et al. (Nat. Rev. Mol. Cell Biol. 2007, 8, 221-233). Enzyme inhibition studies were carried out using a Cary Eclipse fluorescence spectrophotometer (Varian, Walnut Creek, Calif., USA). Compounds 4, 5, 6 and 7 were stable in the buffers that were used in the kinetic assays.

[2] = Water solubility (filtrate of saturated aqueous solution, UPLC-MRM)

NCc1ccc(Oc2ccc(S(=O)(=O)CC3CS3)cc2)cc1 (stereo not shown) [Compound 5, (4-(4-((Thiiran-2-ylmethyl)sulfonyl)phenoxy)phenyl)methanamine HCl salt]
stability in the buffers used in the kinetic assays [1]: stable | Aq. solubility ([2]; HCl salt): 4900 µg/mL | Aq. solubility ([2]; listed as ND-336, HCl salt): Water Solubility 4.9 mg/mL | solubility ([2]; thermodynamic from solid): 4900 µg/mL
